According to ChEMBL document CHEMBL1201862, “PubChem BioAssay data set” (2004):
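In this assay, cells in 96-well plates receive the compound at five concentrations for 48 hours. Endpoints are linearly interpolated between the surrounding concentrations. GI50 = concentration required for 50% inhibition of growth.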 The source made the active and inactive calls. No stated cut-off is given here; in the data, active = GI50 up to about 1.1 µM and inactive = higher.

What was measured:
Assay in all cases: NCI anticancer screen, dose series, 48 h
[1] = system: HT-29
[2] = system: HOP-62
[3] = system: HCC 2998
[4] = system: OVCAR-3
[5] = system: MDA-MB-435
[6] = system: HCT-15
[7] = system: SF-295
[8] = system: SK-MEL-28
[9] = system: UACC-257
[10] = system: SF-539
[11] = system: NCI-H460
[12] = system: MDA-MB-231
[13] = system: KM12
[14] = system: UO-31
[15] = system: MCF7
[16] = system: RPMI-8226
[17] = system: M14
[18] = system: SF-268
[19] = system: Hs-578T

| SMILES | GI50 [1] | GI50 [2] | GI50 [3] | GI50 [4] | GI50 [5] | GI50 [6] [µM] | GI50 [7] | GI50 [8] | GI50 [9] | GI50 [10] | GI50 [11] | GI50 [12] | GI50 [13] | GI50 [14] | GI50 [15] | GI50 [16] | GI50 [17] | GI50 [18] | GI50 [19] |
| --- | --- | --- | --- | --- | --- | --- | --- | --- | --- | --- | --- | --- | --- | --- | --- | --- | --- | --- | --- |
| O=C1C=Cc2c(Cl)sc(Cl)c21 | 1.46 µM (inactive) | 1.74 µM (inactive) | 5.38 µM (inactive) | 1.85 µM (inactive) | 2.02 µM (inactive) | 1.51 | 8.59 µM (inactive) | 1.73 µM (inactive) | 2.03 µM (inactive) | 1.48 µM (inactive) | 9.31 µM (inactive) | 2.86 µM (inactive) | 0.883 µM (active) | 1.6 µM (inactive) | 1.05 µM (active) | 0.675 µM (active) | 1.87 µM (inactive) | 1.66 µM (inactive) | – |
| O=c1c2ccccc2nc2[nH][nH]c(=S)n12 | > 100 µM (inactive) | > 100 µM (inactive) | – | > 100 µM (inactive) | > 100 µM (inactive) | > 100 | > 100 µM (inactive) | > 100 µM (inactive) | > 100 µM (inactive) | > 100 µM (inactive) | > 100 µM (inactive) | > 100 µM (inactive) | > 100 µM (inactive) | > 100 µM (inactive) | > 100 µM (inactive) | > 100 µM (inactive) | > 100 µM (inactive) | > 100 µM (inactive) | 43.3 µM (inactive) |
| Nc1ccc(-c2nc3ccccc3s2)cc1C#Cc1ccccc1 | 19.6 µM (inactive) | 14.5 µM (inactive) | – | 15.5 µM (inactive) | 19.1 µM (inactive) | 17.9 | 21.2 µM (inactive) | – | 16 µM (inactive) | 18.2 µM (inactive) | 17 µM (inactive) | 19.7 µM (inactive) | 16.7 µM (inactive) | 18.3 µM (inactive) | 1.59 µM (inactive) | 20.9 µM (inactive) | 16.3 µM (inactive) | 21.1 µM (inactive) | 21.5 µM (inactive) |
| CC1(C)CC(=O)c2c(nc(SSc3nc4c(c(-c5ccccc5)c3C#N)C(=O)CC(C)(C)C4)c(C#N)c2-c2ccccc2)C1 | > 10 µM (inactive) | > 10 µM (inactive) | > 10 µM (inactive) | > 10 µM (inactive) | – | > 10 | > 10 µM (inactive) | > 10 µM (inactive) | > 10 µM (inactive) | > 10 µM (inactive) | > 10 µM (inactive) | – | > 10 µM (inactive) | > 10 µM (inactive) | > 10 µM (inactive) | > 10 µM (inactive) | > 10 µM (inactive) | > 10 µM (inactive) | > 10 µM (inactive) |
| N#C/C(C(=O)Nc1ccccc1)=C(/N)N1CCCC1 | 88.1 µM (inactive) | > 100 µM (inactive) | > 100 µM (inactive) | > 100 µM (inactive) | > 100 µM (inactive) | > 100 | > 100 µM (inactive) | > 100 µM (inactive) | > 100 µM (inactive) | > 100 µM (inactive) | > 100 µM (inactive) | > 100 µM (inactive) | > 100 µM (inactive) | 97.9 µM (inactive) | – | > 100 µM (inactive) | > 100 µM (inactive) | > 100 µM (inactive) | > 100 µM (inactive) |
| C=CCCCN(C(=O)c1ccccc1)c1ccc(C(=O)OC)o1 | > 100 µM (inactive) | > 100 µM (inactive) | – | – | – | > 100 | > 100 µM (inactive) | – | > 100 µM (inactive) | > 100 µM (inactive) | > 100 µM (inactive) | > 100 µM (inactive) | 95.1 µM (inactive) | > 100 µM (inactive) | > 100 µM (inactive) | – | > 100 µM (inactive) | > 100 µM (inactive) | > 100 µM (inactive) |
| Cc1nc2sc3ccccc3n2c(=O)c1/N=N/c1ccc(Cl)cc1 | > 100 µM (inactive) | > 100 µM (inactive) | – | > 100 µM (inactive) | > 100 µM (inactive) | > 100 | > 100 µM (inactive) | > 100 µM (inactive) | > 100 µM (inactive) | > 100 µM (inactive) | > 100 µM (inactive) | 83.9 µM (inactive) | > 100 µM (inactive) | – | > 100 µM (inactive) | > 100 µM (inactive) | > 100 µM (inactive) | > 100 µM (inactive) | > 100 µM (inactive) |
| O=C(N(C1=CCCC1)N(c1ccccc1)c1ccccc1)C(F)(F)F | 17.3 µM (inactive) | 25.5 µM (inactive) | 18.2 µM (inactive) | 18.9 µM (inactive) | 21.1 µM (inactive) | 21.4 | 22.6 µM (inactive) | 28.4 µM (inactive) | 21.6 µM (inactive) | 20.2 µM (inactive) | 17.5 µM (inactive) | 16.9 µM (inactive) | 18.1 µM (inactive) | 31.6 µM (inactive) | 19.7 µM (inactive) | – | 26.2 µM (inactive) | 16.7 µM (inactive) | – |
